Results taken from article PMC7252906 (Toxicology and applied pharmacology, 2019).
Several values for one entry are separate records, joined by “and”; a condition that tells them apart may be missing. Equal values may be shown once. Read-outs that look alike come from different tables or passages of the source.

Key:
[1] = Effect of DMAE on serum choline levels and conversion of DMAE to choline; type: in vivo, Wistar Han rats; conditions: male rats, gavage 500 mg/kg [^14C]DMAE, 1 h post-dose (remained up to 12 h); pre-dose approximately 17 ng/mL
[2] = Incorporation of [^14C]DMAE-derived radioactivity in tissue lipids; type: in vivo, Wistar Han rats; conditions: gavage 100 mg/kg, 2 h; for Radioactivity in tissue lipids (% dose administered) / Total radioactivity in tissue lipids: male rats
[3] = male Wistar rats, IV 11 mg/kg, 6 minutes post-dosing; ref Dormard et al. (1975); cited from earlier work
[4] = Radiochemical HPLC profiling of urine after [^14C]DMAE; conditions: Oral
[5] = Disposition of [^14C]DMAE after single gavage administration, strain comparison; type: in vivo; conditions: male Sprague Dawley rats, gavage 500 mg/kg, 24 h
[6] = Disposition of DMAE after gavage, rats and mice summarised together; type: in vivo, Wistar Han rats and B6C3F1 mice; conditions: range over groups
[7] = female Wistar Han rats, gavage 500 mg/kg, 24 h
[8] = male Wistar Han rats, IV 10 mg/kg, 24 h

Q: Which results are given for `CN(C)CCO` [DMAE, Dimethylaminoethanol]?
A: mean serum choline level [1]: ~23 ng/mL; highest level of radioactivity incorporated into lipids in any tissues ([2]; male Wistar Han rats): ~ 1 % of the administered dose; Radioactivity in tissue lipids (% dose administered) ([2]; Brain, Fatty Acids): 0.020 % dose; Total radioactivity in tissue lipids ([2]; Brain, Fatty Acids): 34; Radioactivity in tissue lipids (% dose administered) ([2]; Brain, Neutral Lipids): 0.075 % dose; Total radioactivity in tissue lipids ([2]; Brain, Neutral Lipids): 107; Radioactivity in tissue lipids (% dose administered) ([2]; Brain, Phospholipids): 0.097 % dose; Total radioactivity in tissue lipids ([2]; Brain, Phospholipids): 167; Radioactivity in tissue lipids (% dose administered) ([2]; Heart, Fatty Acids): 0.010 % dose; Total radioactivity in tissue lipids ([2]; Heart, Fatty Acids): 17; Radioactivity in tissue lipids (% dose administered) ([2]; Heart, Neutral Lipids): 0.028 % dose; Total radioactivity in tissue lipids ([2]; Heart, Neutral Lipids): 40; Radioactivity in tissue lipids (% dose administered) ([2]; Heart, Phospholipids): 0.188 % dose; Total radioactivity in tissue lipids ([2]; Heart, Phospholipids): 323; Radioactivity in tissue lipids (% dose administered) ([2]; Kidney, Fatty Acids): 0.047 % dose; Total radioactivity in tissue lipids ([2]; Kidney, Fatty Acids): 81; Radioactivity in tissue lipids (% dose administered) ([2]; Kidney, Neutral Lipids): 0.029 % dose; Total radioactivity in tissue lipids ([2]; Kidney, Neutral Lipids): 41; Radioactivity in tissue lipids (% dose administered) ([2]; Kidney, Phospholipids): 0.771 % dose; Total radioactivity in tissue lipids ([2]; Kidney, Phospholipids): 1322; Radioactivity in tissue lipids (% dose administered) ([2]; Liver, Phospholipids): 1.117 % dose; Total radioactivity in tissue lipids ([2]; Liver, Phospholipids): 1915; Radioactivity in tissue lipids (% dose administered) ([2]; Lung, Fatty Acids): 0.074 % dose; Total radioactivity in tissue lipids ([2]; Lung, Fatty Acids): 127; Radioactivity in tissue lipids (% dose administered) ([2]; Lung, Neutral Lipids): 0.276 % dose; Total radioactivity in tissue lipids ([2]; Lung, Neutral Lipids): 395; Radioactivity in tissue lipids (% dose administered) ([2]; Lung, Phospholipids): 0.926 % dose; Total radioactivity in tissue lipids ([2]; Lung, Phospholipids): 1587; Radioactivity in tissue lipids (% dose administered) ([2]; Skin, Fatty Acids): 0.007 % dose; Total radioactivity in tissue lipids ([2]; Skin, Fatty Acids): 12; Radioactivity in tissue lipids (% dose administered) ([2]; Skin, Neutral Lipids): 0.003 % dose; Total radioactivity in tissue lipids ([2]; Skin, Neutral Lipids): 4; Radioactivity in tissue lipids (% dose administered) ([2]; Skin, Phospholipids): 0.251 % dose; Total radioactivity in tissue lipids ([2]; Skin, Phospholipids): 430; Radioactivity in tissue lipids (% dose administered) ([2]; Spleen, Fatty Acids): 0.004 % dose; Total radioactivity in tissue lipids ([2]; Spleen, Fatty Acids): 7; Radioactivity in tissue lipids (% dose administered) ([2]; Spleen, Neutral Lipids): 0.004 % dose; Total radioactivity in tissue lipids ([2]; Spleen, Neutral Lipids): 7; Radioactivity in tissue lipids (% dose administered) ([2]; Spleen, Phospholipids): 0.055 % dose; Total radioactivity in tissue lipids ([2]; Spleen, Phospholipids): 95; Radioactivity in tissue lipids (% dose administered) ([2]; Testes, Fatty Acids): 0.013 % dose; Total radioactivity in tissue lipids ([2]; Testes, Fatty Acids): 23; Radioactivity in tissue lipids (% dose administered) ([2]; Testes, Neutral Lipids): 0.008 % dose; Total radioactivity in tissue lipids ([2]; Testes, Neutral Lipids): 11; Radioactivity in tissue lipids (% dose administered) ([2]; Testes, Phospholipids): 0.097 % dose; Total radioactivity in tissue lipids ([2]; Testes, Phospholipids): 167; % of IV dose present in the plasma [3]: 0.16%; Estimated percentage of area of DMAE peak in urine chromatogram ([4]; Mouse/Female, [^14C]DMAE 10 mg/kg): 8%; Estimated percentage of area of DMAE peak in urine chromatogram ([4]; Mouse/Female, [^14C]DMAE 100 mg/kg): 82%; Estimated percentage of area of DMAE peak in urine chromatogram ([4]; Mouse/Female, [^14C]DMAE 500 mg/kg): 66%; Estimated percentage of area of DMAE peak in urine chromatogram ([4]; Mouse/Male, [^14C]DMAE 500 mg/kg): 100%; % Dose Recovered, CO2 [5]: 2.94 ± 0.230 % dose; % Dose Recovered, Feces [5]: 0.538 ± 0.335 % dose; % Dose Recovered, Tissues and GI Tract (includes contents) [5]: 34.1 ± 1.80 % dose; % Dose Recovered, Total Recovered [5]: 98.3 ± 3.50 % dose; % Dose Recovered, Urine [5]: 60.4 ± 3.80 % dose; % Dose Recovered, VOCs [5]: 0.220 ± 0.047 % dose; excreted as exhaled CO2 [6]: 3–22%; excreted in urine [6]: 16–69%; tissue retention [6]: 21–44%; administered dose recovered in tissues (excluding GI tract) (Wistar Han rats, oral, 24 h post-exposure, range over groups): 21–29%; % Dose Recovered, Feces [7]: 0.549 ± 0.147 % dose; % Dose Recovered, Tissues and GI Tract (includes contents) [7]: 27.4 ± 1.40 % dose; % Dose Recovered, Total Recovered [7]: 98.4 ± 0.800 % dose; % Dose Recovered, VOCs [7]: 0.818 ± 0.456 % dose; % Dose Recovered, CO2 (female Wistar Han rats, gavage 500 mg/kg, 24 h, listed as [^14C]DMAE, 500 mg/kg): 6.09 ± 0.810 % dose; % Dose Recovered, CO2 [8]: 3.52 ± 0.780 % dose; % Dose Recovered, Feces [8]: 0.330 ± 0.092 % dose; % Dose Recovered, Tissues and GI Tract (includes contents) [8]: 38.5 ± 2.30 % dose; % Dose Recovered, VOCs [8]: 0.230 ± 0.029 % dose; % Dose Recovered, Urine (male Wistar Han rats, IV 10 mg/kg, 24 h, 10 mg/kg): 39 % dose; % Dose Recovered, Total Recovered (male Wistar Han rats, IV 10 mg/kg, 24 h, listed as [^14C]DMAE, 10 mg/kg): 82 % dose and 81.8 ± 7.10 % dose
